Measurements as given in patent US4791215A, “Derivatives of glutamic acid and aspartic acid” (priority 1984, dated 1988).

Key:
[1] = test system: morphine analgesia; experiment: Increase in analgesia of morphine, Tail Flick Test (Experiment 1); format: in vivo, rats; conditions: for percentage variation of latency of pain sensation / M (10-90) ± SE, mean percentage variation of latency: compound 10 mg/kg i.p. + morphine 2 mg/kg; for M (10-90) ± SE, mean percentage variation of latency: mean 10-90 min; for Power ratio with respect to morphine alone: rat, in vivo
Description: Experiment No: 1 Increase in analgesia of analgesic-narcotic drugs in rats by the Tail Flick Test
The method is that described by Harris et al. (J. Pharmacol. Exp. Ther. 143 (1964) 141-148).
Male rats are used having a weight of about 150-200 g which have not fasted. A point on the tail is chosen and irradiated by a heat source (75° C.) and the time (in seconds) for which the animal remains without moving its tail is measured.
A maximum period of time of 8 seconds under the heat source is chosen, after which the animal is, in any case, removed to avoid tissue damage. The measurement is effected before (controls) and after treatment with the drugs.
The percentage variation is calculated for each individual animal by the following formula: [formula] The measurements were carried out 10, 20, 30, 45, 60 and 90 minutes after treatment with the analgesics.

[2] = test system: CCK-8 induced contraction of guinea pig gall bladder; experiment: Anti-CCK activity on gall bladder strips in vitro; conditions: CCK-8 10 ng/ml
Description: ANTI-CCK ACTIVITY ON GUINEA PIG GALL BALDDERS IN VITRO
A longitudinal strip of guinea pig gall bladder was placed in a bath of isolated members in the presence of Krebs at a temperature of 32° C. with continuous oxygenation with an oxygen-CO2 mixture (95-5V/V).
The isometric contractions were detected by means of a force transducer and recorded.
The gall bladder was made to contract with the use of a 10 ng/ml concentration of CCK-8; the antagonistic activity of the compounds of the invention on the contracting effect of the CCK was determined with the use of different concentrations and the ED 50 value, that is the concentration in μg/ml of a compound which could antagonise 50% of the contracting effect of the CCK, was determined.

Structure (SMILES) | percentage variation of latency of pain sensation ([1]; 10') [%] | percentage variation of latency of pain sensation ([1]; 20') [%] | percentage variation of latency of pain sensation ([1]; 30') [%] | percentage variation of latency of pain sensation ([1]; 45') [%] | percentage variation of latency of pain sensation ([1]; 60') [%] | percentage variation of latency of pain sensation ([1]; 90') [%] | M (10-90) ± SE, mean percentage variation of latency [1] [%] | Power ratio with respect to morphine alone [1] | ED50 (concentration antagonising 50% of contracting effect of CCK-8) [2] [µg/mL]
CCCN(CCC)C(=O)C(CCC(=O)O)NC(=O)c1ccc(F)cc1 (stereo not drawn) [Compound C-12] | 54.4 ± 16.7 | 76.3 | 61.6 ± 16.0 | 63.9 ± 20.0 | 65.2 ± 17.0 | 11.6 ± 14.0 | 55.5 | 1.86 | 64.7
CCCN(CCC)C(=O)C(CCC(=O)O)NC(=O)c1cc(F)cc(F)c1 (stereo not drawn) [Compound C-13] | 24.6 ± 8.9 | 70.0 ± 18.5 | 75.5 ± 15.0 | 56.6 | 62.3 ± 17.3 | 59.2 ± 25.1 | 58.0 ± 18.0 | 1.95 | > 200
CCCN(CCC)C(=O)C(CCC(=O)O)NC(=O)c1ccccc1Br (stereo not drawn) [Compound C-14] | 36.5 ± 28.4 | 76.0 ± 12.7 | 79.3 ± 10.6 | 77.0 ± 6.7 | 98.3 ± 1.3 | 71.9 ± 13.2 | 73.1 ± 20.0 | 2.45 | 118.4
CCCN(CCC)C(=O)C(CCC(=O)O)NC(=O)c1ccc(Br)cc1 (stereo not drawn) [Compound C-15] | 59.8 ± 14.0 | 84.2 ± 9.6 | 78.3 ± 13.5 | 88.7 ± 8.5 | 82.5 ± 12.7 | 54.5 ± 14.7 | 74.7 | 2.51 | > 200
CCCN(CCC)C(=O)C(CC(=O)O)NC(=O)c1ccccc1Br (stereo not drawn) [Compound C-16] | 43.2 ± 11.0 | 88.7 ± 10.0 | 54.8 ± 5.8 | 47.3 | 26.1 ± 11.5 | 22.2 ± 16.7 | 47.0 ± 24.0 | 1.58 | > 200
CCCN(CCC)C(=O)C(CCC(=O)O)NC(=O)c1ccccc1I (stereo not drawn) [Compound C-17] | 18.9 | 37.0 ± 12.0 | 45.8 ± 18.0 | 41.0 ± 17.0 | 39.3 ± 20.0 | 31.2 ± 18.0 | 35.5 ± 9.5 | 1.19 | > 200
CCCN(CCC)C(=O)C(CCC(=O)O)NC(=O)c1ccc(I)cc1 (stereo not drawn) [Compound C-18] | 48.9 ± 31.0 | 65.9 ± 24.0 | 80.1 ± 9.0 | 59.1 ± 20.0 | 33.5 ± 20.0 | 81.4 ± 12.0 | 58.1 | 1.95 | 60.3
